In this experiment the test system is BT20 Cell. Description: Cancer Cell Lysate Total L-Glutamate Assay. To be noted: Homo sapiens, BT-20, 2 h, total L-glutamate in cell lysate, BT20 cells, 2 hour incubation with test compound. The format is cell-based. Put shortly: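 BT20 and other cancer lines at ~80% confluence were given fresh L-glutamine-containing medium, then treated with serially diluted compound (0.5% DMSO) for 2 hours at 37° C. Washed cells were lysed by freeze-thaw and sonication. Lysate glutamate was measured via glutamate oxidase/HRP/50 μM Amplex Red fluorescence (ex 530-560, em 585 nm); IC50 by four-parameter logistic fit.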

We go through 11 compounds from patent US10676471B2, “Cycloalkyl-linked diheterocycle derivatives” (Pfizer Inc., priority 2014, dated 2020).

Broadly, the IC50 is the concentration that inhibits the measured activity by half. Low values mean greater potency in that assay, high ones weaker potency in that assay. Compound `CC(=O)Nc1nnc(C[C@H]2CC[C@@H](c3nnc(NC(=O)Cc4cncnc4)s3)C2)s1` (single isomer, unassigned) [Example 59, N-{5-[(cis)-3-{[5-(acetylamino)-1,3,4-thiadiazol-2-yl]methyl}cyclopentyl]-1,3,4-thiadiazol-2-yl}-2-(pyrimidin-5-yl)acetamide] gave an IC50 of 7760 nM. The same measure for `CC(=O)Nc1nnc(C[C@H]2C[C@@H](c3nnc(NC(C)=O)s3)C2)s1` (single isomer, unassigned) [Example 62, N-[5-({cis-3-[5-(acetylamino)-1,3,4-thiadiazol-2-yl]cyclobutyl}methyl)-1,3,4-thiadiazol-2-yl]acetamide]: 38.5 nM; for `CC(=O)Nc1nnc(C[C@H]2C[C@H](c3nnc(NC(C)=O)s3)C2)s1` (single isomer, unassigned) [Example 63, N-[5-({trans-3-[5-(acetylamino)-1,3,4-thiadiazol-2-yl]cyclobutyl}methyl)-1,3,4-thiadiazol-2-yl]acetamide]: 110 nM; for `Nc1nnc(CC2CC[C@H](c3nnc(NC(=O)Cc4ccccc4)s3)C2)s1` (single isomer, unassigned) [Example 64, N-(5-{(cis)-3-[(5-amino-1,3,4-thiadiazol-2-yl)methyl]cyclopentyl}-1,3,4-thiadiazol-2-yl)-2-phenylacetamide]: 71.2 nM. The same measure for `Nc1nnc(CC2CC[C@@H](c3nnc(NC(=O)Cc4ccccc4)s3)C2)s1` (single isomer, unassigned) [Example 65, N-(5-{(cis)-3-[(5-amino-1,3,4-thiadiazol-2-yl)methyl]cyclopentyl}-1,3,4-thiadiazol-2-yl)-2-phenylacetamide]: 1820 nM; for `CC(=O)Nc1ccc(C[C@H]2CC[C@@H](c3nnc(NC(=O)Cc4ccccn4)s3)C2)nn1` (single isomer, unassigned) [Example 68, N-{5-[(cis)-3-{[6-(acetylamino)pyridazin-3-yl]methyl}cyclopentyl]-1,3,4-thiadiazol-2-yl}-2-(pyridin-2-yl)acetamide]: 7.1 nM.

Consider `CC(=O)Nc1ccc(C[C@@H]2CC[C@H](c3nnc(NC(=O)Cc4ccccn4)s3)C2)nn1` (single isomer, unassigned) [Example 69, N-{5-[(cis)-3-{[6-(acetylamino)pyridazin-3-yl]methyl}cyclopentyl]-1,3,4-thiadiazol-2-yl}-2-(pyridin-2-yl)acetamide], for which the IC50 turned out to be 2.5 nM. The same measure for `O=C(Cc1ccccn1)Nc1ccc(C[C@H]2CC[C@@H](c3nnc(NC(=O)Cc4ccccn4)s3)C2)nn1` (single isomer, unassigned) [Example 71, 2-(pyridin-2-yl)-N-{5-[(cis)-3-({6-[(pyridin-2-ylacetyl)amino]pyridazin-3-yl}methyl)cyclopentyl]-1,3,4-thiadiazol-2-yl}acetamide]: 2.7 nM; for `O=C(Cc1ccccn1)Nc1ccc(C[C@@H]2CC[C@H](c3nnc(NC(=O)Cc4ccccn4)s3)C2)nn1` (single isomer, unassigned) [Example 72, 2-(pyridin-2-yl)-N-{5-[(cis)-3-({6-[(pyridin-2-ylacetyl)amino]pyridazin-3-yl}methyl)cyclopentyl]-1,3,4-thiadiazol-2-yl}acetamide]: 0.9 nM; for `CCC(=O)Nc1ccc(C[C@H]2C[C@@H](c3nnc(NC(=O)Cc4ccccn4)s3)C2)nn1` (single isomer, unassigned) [Example 73]: 0.7 nM. To `O=C(Cc1ccccn1)Nc1ccc(C[C@H]2CC[C@@H](c3nnc(Nc4ccccn4)s3)C2)nn1` (single isomer, unassigned) [Example 74, 2-(pyridin-2-yl)-N-[6-({(cis)-3-[5-(pyridin-2-ylamino)-1,3,4-thiadiazol-2-yl]cyclopentyl}methyl)pyridazin-3-yl]acetamide] belongs 3.4 nM.
